These results are taken from article PMC8009520, “Exploration of TRPM8 Binding Sites by β-Carboline-Based Antagonists and Their In Vitro Characterization and In Vivo Analgesic Activities” (Journal of Medicinal Chemistry, 2020).

The target of data set [1] is T1, human TRPM8 (Homo sapiens, UniProt Q7Z2W7). Put plainly: cell-based. As to conditions: HEK293, read-out: % Inhibition 300 μM menthol-evoked currents at 300 nM compounds, HEK-293 cells expressing human TRPM8, compound 300 nM.
In data set [2] the target is T2, rat isoform of TRPM8 channels (Rattus norvegicus, UniProt Q8R455).
T2 construct: expressed in transfected cells
Kind of data set: Ca2+ fluorimetric assay, menthol-activated channel. It counts as cell-based. As for the experimental part: TRPM8 blocker activity of all synthesized compounds was tested by Ca^2+ fluorimetric assays using HEK-293 cells stably expressing the rat isoform of TRPM8 channels, using menthol and AMTB as prototypical agonist and antagonist, respectively.
For measurement of the potency of the compounds, fluorimetric experiments were performed using HEK-293 cells (CRL-1573TM, American Type Culture Collection, LGC Promochem, Molsheim, France) that stably express rat TRPM8. The cells were seeded in 96-well plates (Corning Incorporated, Corning, NY) at a cell density of 40 000 cells 2 days before treatment. On the day of treatment, the medium was replaced with 100 μL of the dye loading solution Fluo-4 NW supplemented with probenecid 2.5 mM.
The tested molecules dissolved in DMSO were added at the desired concentrations, and the plates were incubated in darkness at 37 °C in a humidified atmosphere of 5% CO2 for 60 min. The fluorescence was measured using instrument settings appropriate for excitation at 485 nm and emission at 535 nm (POLARstar Omega BMG LABtech). A baseline recording of four cycles was recorded prior to stimulation with the agonist (100 μM menthol for TRPM8). The TRPM8 antagonist, 10 μM AMTB, was added to the medium containing the corresponding agonist to induce channel blockade. The changes in fluorescence intensity were recorded during 15 cycles more. The higher concentration of DMSO used in the experiment was added to the control wells. The cells’ fluorescence was measured before and after the addition of various concentrations of test compounds. The fluorescence values obtained are normalized to that prompted by the corresponding agonist (for channel activating compounds) or upon agonist and antagonist coexposure (for channel blocker compounds).

Data set [3] addresses T1, human TRPM8. Particulars: HEK-293 cells expressing human TRPM8, compound 300 nM.
In another data set the target is T3, hTRPV1 (Homo sapiens, UniProt Q8NER1).
T3 construct: expressed in transfected cells; host or cells: CHO-K1, stably transfected
Kind of data set: Selectivity fluorimetric assay, CHO-K1 cells. As to conditions: capsaicine as reference agonist. It counts as cell-based.

Data set [4] can be described thus: In vitro metabolic stability using liver microsomes. It counts as in vitro ADME, human. As to conditions: protocol II, NADPH and UDP-GlcUA, 37 °C, 60 min. As for the experimental part: Compound 4 was used as reference, considering that its main pitfall was represented by metabolic instability that the newly synthesized compounds were aimed in overcoming. […] Each sample (2.5 mM) was incubated with 100 mM phosphate buffer (pH 7.4) and 20 mg/mL of liver microsomes (Thermo Fisher Scientific, Bremen, Germany). After preincubation in water bath for 5 min, the mixture was incubated with 20 mM NADPH (protocol I) at 37 °C for 60 min in a Thermomixer comfort (Eppendorf, Hamburg, Germany). For the measurement of UGT activity the microsomes were preincubated with alamethicin, which forms pores in microsomal membranes, promoting access of substrate and cofactor to UGT enzymes. Subsequently, each sample was incubated with 100 mM phosphate buffer, 500 mM magnesium chloride, 10 mM NADPH, and 20 mM UDP-GlcUA at 37 °C for 60 min. Finally, the reactions from both protocols (protocols I and II) were stopped by the addition of 200 μL of ice-cold methanol, and then samples were centrifuged at 10 000 rpm at 25 °C for 5 min (Eppendorf microcentrifuge 5424, Hamburg, Germany). The supernatants were collected and injected in UHPLC-PDA. The control at 0 min was obtained by addition of the organic solvent immediately after incubation with microsomes. […] The extent of metabolism is expressed as a percentage of the parent compound turnover using the following equation, as previously described:[43] […]
A general note: Liver microsomes are a subcellular fraction often used to study metabolism.

The test system of the next data set is Swiss CD1 mice. Kind of data set: CCI neuropathic pain model, thermal gradient ring. It counts as in vivo. The text has this:
Further we investigated the efficacy of 31a in a chronic constriction injury (CCI) model of neuropathic pain, using a thermal gradient ring assay. This assay deeply differs from the canonical reflexive measures of nociception, in which the end point is withdrawal to a noxious stimulus, a fact that has been questioned during the past years for their unsatisfactory translation.[34] In particular, this test integrates information on temperature perception distinguishing exploratory behavior from thermal preference behavior.[35a]
The mean temperature to which the sham animal located during the observation time was 27.9 °C ± 0.35 °C (Figure 7A), and no statistical differences were evidenced at the different time points (Figure 7B). […] It is questionable why this transient effect was recorded, but it must be considered that TRPM8 antagonists are able to decrease the body temperature.
Neuropathic pain behavior was induced by ligation of the sciatic nerve as described previously.[27d] […] Drug effects were evaluated 7 and 14 days after ligation.
We utilized the thermal gradient ring from Ugo-Basile previously using a modified protocol from Touska et al., 2016.[35] […] On day 2, mice were injected and 30 min after were placed in the apparatus and measured for 60 min using 15–40 °C. […]

The target of the next data set is T4, hNav1.7 (Homo sapiens, UniProt Q15858).
T4 construct: expressed in transfected cells; host or cells: HEK-293, stably transfected
Put plainly: Selectivity fluorimetric assay, HEK-293 cells. It counts as cell-based. As to conditions: veratridine as reference agonist.

In a further data set the test system is C57/BL6 mice. Kind of data set: Oxaliplatin-induced cold allodynia, acetone drop method. It counts as in vivo. As for the experimental part: This effect was still evident 30 min after administration of a 30 μg dose (Figure 6).
Data are given as the mean ± SEM n = 6. Statistical analysis was two-way ANOVA followed by post hoc Bonferroni test by multiple comparison: ***p < 0.001, ****p < 0.0001.
For the oxaliplatin-induced neuropathic pain assay, oxaliplatin (Tocris) was dissolved in water with gentle warming and was subcutaneously (sc) injected on days 1, 3, and 5 at a 6 mg/kg dose. The day 7 after administration, experiments were performed. Together with oxaliplatin injection, saline and a 5% mannitol solution were intraperitoneally injected to prevent kidney damage and dehydration. 31a stock was prepared in DMSO (Sigma-Aldrich) and diluted in saline for injections.
Cold chemical thermal sensitivity was assessed using acetone drop method.[18b] Mice were placed in a metal mesh cage and allowed to habituate for approximately 30 min in order to acclimatize them. Freshly dispensed acetone drop (10 μL) was applied gently onto the mid-plantar surface of the hind paw. Cold chemical sensitive reaction with respect to paw licking was recorded as a positive response (nociceptive pain response). The responses were measured for 20 s with a digital stopwatch. For each measurement, the paw was sampled twice and the mean was calculated. The interval between each application of acetone was approximately 5 min.

The next data set deals with T5, hTRPA1 (Homo sapiens, UniProt O75762).
T5 construct: expressed in transfected cells; host or cells: HEK-293, stably transfected
Kind of data set: Selectivity fluorimetric assay, HEK-293 cells. It counts as cell-based. As to conditions: AITC as reference agonist.

A further data set has as its system TRPM8. Also noted: method as in PMID 26847872, PMID 25125580. Particulars: patch-clamp recordings; 18b; cited from earlier work.
[5] abbreviates: HEK-293 cells stably expressing rat TRPM8, menthol as agonist, mean ± SD of at least three measurements, read-out: IC50.
The mark [6] stands for this setting: Table 2, Ca2+ fluorimetric assay, read-out: IC50 Ca2+.

Like-named read-outs stand apart in the source and are kept apart here.

T2 sequence (Q8R455 whole entry, canonical isoform): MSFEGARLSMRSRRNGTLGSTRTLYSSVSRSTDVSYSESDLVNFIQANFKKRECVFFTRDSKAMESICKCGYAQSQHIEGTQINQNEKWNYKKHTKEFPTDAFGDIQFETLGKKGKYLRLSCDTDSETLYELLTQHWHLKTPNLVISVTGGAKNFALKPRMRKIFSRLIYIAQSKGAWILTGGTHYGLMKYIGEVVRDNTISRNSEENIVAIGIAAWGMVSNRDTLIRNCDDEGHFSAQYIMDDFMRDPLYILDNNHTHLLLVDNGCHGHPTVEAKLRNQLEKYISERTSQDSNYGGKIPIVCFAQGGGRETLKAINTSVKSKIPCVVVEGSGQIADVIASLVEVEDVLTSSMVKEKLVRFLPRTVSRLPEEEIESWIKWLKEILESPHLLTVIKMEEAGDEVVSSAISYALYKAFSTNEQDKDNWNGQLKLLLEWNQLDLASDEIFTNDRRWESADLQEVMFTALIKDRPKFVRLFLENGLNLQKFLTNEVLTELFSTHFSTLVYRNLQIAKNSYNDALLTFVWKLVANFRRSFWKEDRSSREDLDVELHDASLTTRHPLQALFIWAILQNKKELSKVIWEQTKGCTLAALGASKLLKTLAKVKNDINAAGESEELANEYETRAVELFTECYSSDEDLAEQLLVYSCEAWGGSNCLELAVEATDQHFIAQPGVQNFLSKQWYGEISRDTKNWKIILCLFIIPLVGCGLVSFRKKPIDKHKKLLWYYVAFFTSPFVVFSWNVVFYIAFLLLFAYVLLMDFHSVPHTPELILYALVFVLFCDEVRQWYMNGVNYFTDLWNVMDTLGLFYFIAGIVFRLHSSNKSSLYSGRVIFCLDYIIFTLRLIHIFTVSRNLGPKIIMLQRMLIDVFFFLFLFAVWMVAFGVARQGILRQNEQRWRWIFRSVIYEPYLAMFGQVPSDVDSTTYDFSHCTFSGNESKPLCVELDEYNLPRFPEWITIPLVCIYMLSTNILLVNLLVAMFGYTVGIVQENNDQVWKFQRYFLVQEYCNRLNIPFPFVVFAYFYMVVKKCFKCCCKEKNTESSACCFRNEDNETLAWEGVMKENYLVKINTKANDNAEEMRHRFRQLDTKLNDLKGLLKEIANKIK
T1 sequence (Q7Z2W7 whole entry, canonical isoform): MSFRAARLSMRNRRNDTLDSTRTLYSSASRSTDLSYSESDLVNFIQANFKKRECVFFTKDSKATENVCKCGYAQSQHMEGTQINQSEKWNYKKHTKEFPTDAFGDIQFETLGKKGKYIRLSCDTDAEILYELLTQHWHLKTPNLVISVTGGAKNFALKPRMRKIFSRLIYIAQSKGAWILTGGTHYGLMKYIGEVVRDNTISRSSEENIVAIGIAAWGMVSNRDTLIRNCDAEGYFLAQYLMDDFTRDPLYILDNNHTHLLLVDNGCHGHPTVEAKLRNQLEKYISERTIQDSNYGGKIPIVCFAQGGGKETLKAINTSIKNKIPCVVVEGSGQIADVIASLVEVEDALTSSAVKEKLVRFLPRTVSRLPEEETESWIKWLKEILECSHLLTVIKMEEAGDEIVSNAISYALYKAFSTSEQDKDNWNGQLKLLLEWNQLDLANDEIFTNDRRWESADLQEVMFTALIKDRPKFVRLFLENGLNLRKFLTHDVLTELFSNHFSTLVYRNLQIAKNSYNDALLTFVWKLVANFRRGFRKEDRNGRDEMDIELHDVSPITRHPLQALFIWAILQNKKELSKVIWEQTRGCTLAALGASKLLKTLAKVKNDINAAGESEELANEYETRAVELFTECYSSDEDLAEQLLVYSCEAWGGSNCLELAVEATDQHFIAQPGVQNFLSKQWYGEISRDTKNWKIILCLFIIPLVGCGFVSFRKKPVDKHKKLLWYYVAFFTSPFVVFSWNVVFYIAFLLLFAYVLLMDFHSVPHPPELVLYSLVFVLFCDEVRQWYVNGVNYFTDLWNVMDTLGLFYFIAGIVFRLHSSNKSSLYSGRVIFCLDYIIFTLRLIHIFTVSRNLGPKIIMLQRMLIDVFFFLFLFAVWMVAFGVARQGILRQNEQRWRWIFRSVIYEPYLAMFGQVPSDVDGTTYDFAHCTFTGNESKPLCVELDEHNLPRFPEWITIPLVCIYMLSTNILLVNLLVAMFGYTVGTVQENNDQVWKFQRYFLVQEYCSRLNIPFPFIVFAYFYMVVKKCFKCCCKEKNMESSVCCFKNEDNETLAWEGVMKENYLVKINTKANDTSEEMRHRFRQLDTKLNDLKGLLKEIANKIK
T3 sequence (Q8NER1 whole entry): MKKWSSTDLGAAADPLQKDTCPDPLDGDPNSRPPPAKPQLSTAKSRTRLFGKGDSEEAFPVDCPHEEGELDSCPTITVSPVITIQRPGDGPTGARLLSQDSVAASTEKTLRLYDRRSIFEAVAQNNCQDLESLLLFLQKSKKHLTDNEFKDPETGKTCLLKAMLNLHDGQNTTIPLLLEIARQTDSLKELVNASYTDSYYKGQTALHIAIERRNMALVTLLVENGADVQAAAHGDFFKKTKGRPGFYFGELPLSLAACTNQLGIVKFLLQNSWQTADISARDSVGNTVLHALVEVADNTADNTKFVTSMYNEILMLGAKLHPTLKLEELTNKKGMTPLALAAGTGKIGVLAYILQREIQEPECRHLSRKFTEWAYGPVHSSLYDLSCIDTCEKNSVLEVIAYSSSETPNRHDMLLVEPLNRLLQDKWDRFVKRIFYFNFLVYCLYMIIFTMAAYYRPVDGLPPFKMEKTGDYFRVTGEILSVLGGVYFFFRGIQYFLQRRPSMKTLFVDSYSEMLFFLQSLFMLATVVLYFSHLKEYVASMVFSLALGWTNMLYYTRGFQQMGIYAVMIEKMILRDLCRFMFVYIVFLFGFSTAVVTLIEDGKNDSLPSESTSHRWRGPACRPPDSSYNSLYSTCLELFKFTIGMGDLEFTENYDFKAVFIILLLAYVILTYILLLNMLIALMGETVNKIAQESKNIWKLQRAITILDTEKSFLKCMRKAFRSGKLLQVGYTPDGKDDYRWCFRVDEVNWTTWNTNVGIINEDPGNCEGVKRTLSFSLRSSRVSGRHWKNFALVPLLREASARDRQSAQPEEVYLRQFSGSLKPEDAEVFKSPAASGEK
T4 sequence (Q15858 whole entry): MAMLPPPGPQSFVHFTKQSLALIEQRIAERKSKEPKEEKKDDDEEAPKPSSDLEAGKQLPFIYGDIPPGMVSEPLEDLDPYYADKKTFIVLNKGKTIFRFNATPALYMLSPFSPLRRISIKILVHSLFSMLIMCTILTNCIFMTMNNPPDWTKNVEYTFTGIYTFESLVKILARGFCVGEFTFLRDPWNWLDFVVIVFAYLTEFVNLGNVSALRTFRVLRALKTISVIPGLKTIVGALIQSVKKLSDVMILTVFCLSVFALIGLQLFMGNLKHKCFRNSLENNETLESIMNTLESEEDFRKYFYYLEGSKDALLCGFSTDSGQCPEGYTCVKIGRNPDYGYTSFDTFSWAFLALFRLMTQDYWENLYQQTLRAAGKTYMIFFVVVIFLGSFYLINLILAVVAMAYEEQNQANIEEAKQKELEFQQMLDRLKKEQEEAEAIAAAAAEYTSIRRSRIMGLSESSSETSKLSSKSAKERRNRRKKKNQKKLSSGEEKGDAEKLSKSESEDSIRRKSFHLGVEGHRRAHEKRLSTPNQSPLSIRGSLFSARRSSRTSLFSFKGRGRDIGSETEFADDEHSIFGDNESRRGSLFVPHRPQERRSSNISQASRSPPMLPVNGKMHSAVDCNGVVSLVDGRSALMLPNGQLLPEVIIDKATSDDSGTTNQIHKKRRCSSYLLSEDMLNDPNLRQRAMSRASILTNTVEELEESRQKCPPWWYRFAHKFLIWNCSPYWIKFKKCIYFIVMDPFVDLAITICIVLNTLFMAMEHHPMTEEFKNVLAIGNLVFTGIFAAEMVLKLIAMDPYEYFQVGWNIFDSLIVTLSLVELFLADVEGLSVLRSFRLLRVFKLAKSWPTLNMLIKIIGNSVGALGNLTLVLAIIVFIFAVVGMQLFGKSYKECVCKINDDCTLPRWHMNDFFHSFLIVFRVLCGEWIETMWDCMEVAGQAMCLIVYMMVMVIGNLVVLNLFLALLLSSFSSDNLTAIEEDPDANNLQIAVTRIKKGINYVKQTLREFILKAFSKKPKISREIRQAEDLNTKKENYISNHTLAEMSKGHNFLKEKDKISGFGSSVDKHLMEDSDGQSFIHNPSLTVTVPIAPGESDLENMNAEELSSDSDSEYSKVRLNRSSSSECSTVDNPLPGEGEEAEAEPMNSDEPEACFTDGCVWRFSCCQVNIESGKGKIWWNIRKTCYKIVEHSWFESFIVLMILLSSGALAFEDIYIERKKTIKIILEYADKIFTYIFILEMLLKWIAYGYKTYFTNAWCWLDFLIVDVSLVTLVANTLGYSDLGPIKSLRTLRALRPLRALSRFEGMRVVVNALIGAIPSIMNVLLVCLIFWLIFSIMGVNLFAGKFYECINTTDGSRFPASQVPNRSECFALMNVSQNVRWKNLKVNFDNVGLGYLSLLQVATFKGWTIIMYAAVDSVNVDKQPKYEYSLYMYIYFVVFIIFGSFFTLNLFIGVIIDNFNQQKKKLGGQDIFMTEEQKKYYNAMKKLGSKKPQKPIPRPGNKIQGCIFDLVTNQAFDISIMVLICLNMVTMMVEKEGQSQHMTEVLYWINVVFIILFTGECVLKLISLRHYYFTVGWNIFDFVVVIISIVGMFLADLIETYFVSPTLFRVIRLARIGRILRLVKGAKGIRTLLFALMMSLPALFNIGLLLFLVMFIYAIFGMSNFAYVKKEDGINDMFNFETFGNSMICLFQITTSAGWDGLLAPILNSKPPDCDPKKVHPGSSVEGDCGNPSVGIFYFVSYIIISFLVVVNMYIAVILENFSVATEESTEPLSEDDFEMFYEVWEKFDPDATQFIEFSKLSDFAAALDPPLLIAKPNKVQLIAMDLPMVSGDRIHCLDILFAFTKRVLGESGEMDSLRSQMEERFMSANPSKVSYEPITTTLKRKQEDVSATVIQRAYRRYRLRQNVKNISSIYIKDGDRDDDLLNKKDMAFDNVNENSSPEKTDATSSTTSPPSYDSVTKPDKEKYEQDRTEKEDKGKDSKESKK

`O=C(O)CC[C@H]1N[C@H](C(=O)NCc2ccc(F)cc2)Cc2c1[nH]c1ccccc21` [12a, 3-((1R,3S)-3-((4-Fluorobenzyl)carbamoyl)-2,3,4,9-tetrahydro-1H-pyrido[3,4-b]indol-1-yl)propanoic Acid]: on human TRPM8 [1], the inhibition (commonly the drop in the measured response relative to a control, in per cent) at 0.3 µM was found to be 34%. In addition, the IC50 in data set [2] (setting [5]) and in data set [2] (setting [6]) was 5 ± 1.2 µM in each case. For the same molecule, the “% Inhibition 300 μM menthol-evoked currents at 300 nM compounds” value on human TRPM8 [3] came out at 34.1±9.6%.

In the case of `O=C1[C@@H]2Cc3c([nH]c4ccccc34)[C@@H](c3ccc(Cl)cc3)N2C(=O)N1Cc1ccc(F)cc1` [31a, (5R,11aS)-5-(4-Chlorophenyl)-2-(4-fluorobenzyl)-5,6,11,11a-tetrahydro-1H-imidazo[1′,5′:1,6]pyrido[3,4-b]indole-1,3(2H)-dione], at hTRPV1, the “activity as agonist or antagonist on TRPV1” value is given as “no activity as agonists or antagonists”. In addition, the “metabolic turnover, phase I + phase II” value in data set [4] is reported as 46.0 ± 2.3%. Further, the concentration for half-maximal inhibition (IC50) – broadly, the concentration at which inhibition is half-maximal – in data set [2] (setting [5]) is 0.5 ± 0.3 µM; in [2] (setting [6]), >30 µM. Further, the rTRPM8 IC50 (calcium microfluorimetric assays) in data set [2] (supplementary xlsx) was > 30 µM. In the data set on Swiss CD1 mice (CCI mice 14 days after ligation, 11.5 mg/kg ip, gradient 15-40 °C), this molecule came in with a mean preferred temperature of 33.30 °C. In addition, in the data set with Swiss CD1 mice (sham-mice), the “effect on temperature preferences” value is recorded as “No effects”. Besides, the “activity as agonist or antagonist on Nav1.7” value at hNav1.7 is “no activity as agonists or antagonists”. Besides, the “inhibition of OXP-induced cold allodynia (paw licking)” value is “not effective” with C57/BL6 mice (1 μg sc, single administration); “remarkable inhibitory effect” in the data set with C57/BL6 mice (10 μg sc); “remarkable inhibitory effect” in the data set with C57/BL6 mice (30 μg sc). In the data set with C57/BL6 mice (30 μg sc, 30 min), the “inhibition of OXP-induced cold allodynia 30 min after administration” value is reported as “still evident”. Further, the “time of maximum inhibitory effect” value in the data set with C57/BL6 mice (10 and 30 μg sc) was 15 min. The “activity as agonist or antagonist on TRPA1” value on hTRPA1 is “no activity as agonists or antagonists”.

For the molecule `c1ccc(CN(CCc2c[nH]c3ccccc23)Cc2ccccc2)cc1` [compound 3], in the data set on TRPM8, the IC50 was 0.367 µM.
